Data on one compound can be found in US20160324884A1, “TREATMENT OF DIABETES WITH PENTACYCLIC TRITERPENOID SAPONIN COMPOUNDS FROM SZECHUAN MELANDIUM ROOT” (priority 2013, published 2016).

The structures appear in SMILES notation. “Also recorded” adds a separate entry of the source.

One assay deals with KK^Ay mice. The experiment in a line: Glycemia in KK^Ay mice during treatment and after withdrawal (Example 3). It counts as in vivo. An excerpt: 60 male KK^Ay mice (12 weeks of age, License NO. SCXK (BJ) 2009-0015, Beijing Huafukang Biology Technology Co. Ltd.) and 10 normal male C57BL/6 mice (12 weeks of age, License NO. SCXK (BJ) 2009-0015, Beijing Huafukang Biology Technology Co. Ltd.) were adaptively bred for one week, and then used in the following experiment.
60 KK^Ay mice were adaptively bred for 1 week, and then randomly assigned into 6 groups: Model group, Compound (1) group, Compound (2) group, Compound (3) group, Compound (4) group, and metformin group, 10 mice per group. 10 normal C57BL/6 mice were used for the control group. KK^Ay mice were in a high-fat diet, and the control normal mice were in a normal control diet. The control and model groups were hypodermically injected with sterile water, the 6 medicated groups mice were subcutaneously injected with […] Wacao saponins, (Compounds (1), (2), (3) and (4)) respectively, and the positive group was administered metformin by gavage. All mice were administrated at 9 am for 2 weeks and the administration volume is 10 ml/kg BW.
Compound (1), (2), (3) and (4) were respectively dissolved into sterile water, and sterilized with filtration for Sc. to the medication groups. The metformin was dissolved into sterile water for lg. to the positive control group. Control and model groups animals were injected with sterile water (10 ml/kg BW), Sc. All the animals were treated daily at 9 am for 2 weeks (14 days).
Blood detection: Blood glucose was measured weekly. Overnight fasting glycemia level was measured with One Touch ULTRA Glucometer for the tail blood test. At the end of the experiment, blood serum was collected for measuring levels of fasting blood glucose and insulin, and the insulin sensitivity index (ISI) was calculated. At the same time, hepatic tissues and skeletal muscles of mice were taken out to determine levels of hepatic and muscle glycogen by detection kits.
Termination of the experiment After administrating mice for 2 weeks (14 days), the experiment was terminated.
This experiment is to observe the anti-hyperglycemia effects of Wacao saponins on KK^Ay mice during and after the period of drug treatment, respectively.

The test system of a further assay is normal ICR mice. Put plainly: Glycemia in normal ICR mice (Example 4). The settings on record: 2.0 mg/kg Sc, vs control group. It counts as in vivo. An excerpt:
40 male ICR mice (20-22g, License NO. SCXK (BJ) 2011-0004, Beijing SPF Experimental Animal Technology Co. Ltd.) were adaptively bred for one week, and then used in the following experiment.
Animals were housed individually in wood-chip-bedded plastic cages and fed the standard laboratory chow. All the animals had ad libitum access to food and water.
40 ICR mice were adaptively bred for 1 week, and then randomly assigned into 4 groups: Model, Compound (1), Compound (2) and metformin group, 10 mice per group. All the animals were fed with normal food. Mice in the control group were hypodermically injected with sterile water. The treated groups were subcutaneously injected with Compounds (1) and (2), respectively. And the positive group was administrated metformin by gavage. All the animals were administrated at 9 am for 2 weeks, and the dose volume is 10 ml/kg BW.
Compound (1) and (2) were respectively dissolved into sterile water, and sterilized with filtration for Sc. The metformin was dissolved into sterile water for lg. to the positive control group. Mice in the control group were injected with sterile water (10 ml/kg BW), Sc. All the animals were treated at 9 am for 2 weeks (14 days).
Blood detection: Blood glucose was measured weekly. Overnight fasting glycemia was measured by One Touch ULTRA Glucometer (LifeScan Johnson and Johnson, USA) for the tail blood test.
End of the experiment: After mice being administrated for 2 weeks (14 days), the experiment was terminated.

Another assay relates to T2DM rats. Put plainly: Glycosylated serum protein (GSP) and liver and muscle glycogen in T2DM rats (Example 5). In kind it is in vivo, SD rats. The settings on record: 4.0 mg/kg Sc vs glucobay 20 mg/kg lg. The source says:
50 SD rats were adaptively bred for 1 week, and then randomly assigned into 5 groups: The control group, model group, Compound (1) group, Compound (2) group and glucobay group (the positive group), 10 rats per group. All the animals were in a standard laboratory diet. Control and model group animals were hypodermically injected with sterile water, test compound treatment groups were subcutaneously injected with the Compounds (1) and (2), and the positive group was administrated glucobay solution by gavage. All the animals were administrated at 9 am for 2 weeks, and the dose volume is 10 ml/kg BW.
The Compounds (1) and (2) were dissolved into sterile water, and sterilized with filtration, Sc. Glucobay was dissolved into sterile water, lg. Animals in the control and model groups were injected with sterile water (10 ml/kg BW), Sc. All the animals were treated at 9 am for 2 weeks (14 days).
All rats except the control group were administrated intragastrically with the high-fat emulsion (10 ml/kg) and weighed the body weight weekly. After weeks of administration, rats were intraperitoneally injected with streptozotocin (STZ, dissolved in citric acid-citrate sodium solution, pH 4.2, freshly prepared and used instantly, and store away from light) (30mg/kg). 4 days later, blood glucose level in rats was measured by tail blood test. […]

As to `CC(=O)OC1C(OC(=O)/C=C/c2ccc(C)cc2)C(C)OC(OC(=O)[C@]23CCC(C)(C)C[C@H]2C2C=C[C@@H]4[C@@]5(C)CC[C@H](OC6OC(C(=O)O)C(O)C(OC7OCC(O)C(O)C7O)C6OC6OC(CO)C(O)C(O)C6O)[C@@](C)(C=O)[C@@H]5CC[C@@]4(C)[C@]2(C)C[C@H]3O)C1OC1OC(C)C(O)C(O)C1O` (stereo partly drawn) [Compound (1), sinocrassuloside VI], the overall anti-diabetic effects result in the assay on KK^Ay mice (KK^Ay mice, 2.0 mg/kg Sc, 2 weeks, comparison among compounds) is “best anti-diabetic effects”. Besides, the “duration of hypoglycemic effect compared with metformin” value with KK^Ay mice (KK^Ay mice, after stopping medication) is “lasts longer than that of metformin”. Further, the “descending rates of blood glucose” value with KK^Ay mice (T2DM mice, 2 mg/kg, two weeks after subcutaneous injection) came to 70%. Also, the glycemia level entry in the assay on normal ICR mice (after 1 week) is on record as “no significant difference was found except the Compound (1) group (p<0.05, vs. control group)”; with normal ICR mice (after 2 weeks) it was “decreased much obviously”. The “effect on glycogen levels and GSP levels compared with glucobay” value in the assay with T2DM rats was “better effect on up-regulating of glycogen levels and down-regulating of GSP levels; also recorded: superior to that of glucobay; also recorded: stronger than glucobay”.
